Assay results published in EP4516309A1, “CRHR1 AGONISTS FOR USE IN THE TREATMENT OF SOCIAL ANXIETY DISORDERS” (Consejo Superior de Investigaciones Cientificas, priority 2023, dated 2025).

Columns and labels:
[1] = biological target: T1, CRHR1 (Mus musculus, UniProt P35347); test: Inhibitory events in rdLS neurons before and after tetanic light stimulation of ILA CRH fibers, with or without antagonist; format: cell-based, mice; conditions: 300 nM antalarmin in the bath
T1 sequence (P35347 24-415): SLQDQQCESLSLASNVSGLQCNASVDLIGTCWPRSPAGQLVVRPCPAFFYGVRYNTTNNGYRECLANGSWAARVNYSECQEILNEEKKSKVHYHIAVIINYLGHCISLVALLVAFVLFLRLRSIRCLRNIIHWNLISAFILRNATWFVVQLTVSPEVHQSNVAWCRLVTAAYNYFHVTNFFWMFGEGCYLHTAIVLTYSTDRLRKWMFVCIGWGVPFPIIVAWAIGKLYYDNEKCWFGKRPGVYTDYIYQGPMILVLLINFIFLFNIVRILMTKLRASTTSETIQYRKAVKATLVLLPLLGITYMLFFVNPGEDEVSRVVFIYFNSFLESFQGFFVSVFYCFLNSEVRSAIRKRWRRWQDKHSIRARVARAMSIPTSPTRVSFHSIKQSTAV
From the text: The inventors prepared coronal brain slices from 8- to 12-week-old C57BL6/J mice. Animals were killed under isoflurane anesthesia by perfusion into the right ventricle of ice-cold solution containing the following (in mM): 125 NaCl, 2.5 KCI, 22.5 glucose, 25 NaHCOs, 1.25 NaH2PO4, 3 Na Pyruvate, 1 Ascorbic acid, 2 CaCl2 and 1 MgCl2). ACSF was saturated with 95% O2 and 5% CO2, pH 7.4. Brains were cut into 400 µm slices with a vibratome (VT1200S, Leica) in the same ice-cold dissection solution. Slices were then transferred to an incubation chamber containing the same ACSF solution. The chamber was kept at 34°C for 30 min and then at room temperature for at least 1 h before recording. All experiments were performed at room temperature. Slices were mounted in the recording chamber under a microscope. Recordings were acquired using the Multiclamp 700A amplifier (Molecular Device), data acquisition interface ITC-18 (Instrutech) and the Axograph software. […] Inhibitory currents were recorded in voltage-clamp configuration at +10 mV. […] LS neurons from WT mice were also recorded. […]
The inventors expressed channel rhodopsin in ILA^CRH neurons and prepared rdLS slices (Fig. 15F). The inventors obtained whole-cell recordings of rdLS neurons and recorded spontaneous inhibitory events (sIPSC) before and after applying a tetanic light stimulation. […]

[2] = test system: CRHR1; test: Social novelty preference test after cannula infusion in rdLS; format: in vivo, C57BL/6J wild-type mice; conditions: 2 µg of antalarmin in 0.6 µL of DMSO infused in rdLS
From the text: The mouse scalp was removed and scored before a hole was drilled (AP +0.9, ML ±0). A cannula guide extending 2.4 mm below the pedestal (Plastics One #C315G 2-G11-SPC) was lowered slowly and kept in place using superglue. The skull was then covered with dental cement (GC FujiCEM 2) and dummy cannulas (Plastics One #C315DC-SPC) were inserted into the guides. The mice were returned to their home cages and left to recover for at least 1 week. For rdLS infusion, mice were placed under light isoflurane anesthesia (2%) and the dummy cannula was removed. A cannula (Plastics One #C315I-SPC) projecting 2.5 mm from the tip of the cannula guide was mounted. […]
Social novelty preference test. […] Using automatic tracking of the test mice (ANY-Maze, Stoelting), the inventors quantified the time the test mice spent in the immediate area surrounding each cup - and therefore, interacting with each stimulus mice - during learning and recall. Using the interaction time from the recall trial, the inventors calculated a discrimination index for social novelty preference as the following: D! = (time with novel - time with familiar) / total interaction time. […] The inventors also calculated the total time spent interacting with stimulus mice during each trial in order to verify that the sociability drive was not affected. […]

[3] = test system: GABAA and GABAB receptors; test: Light-induced IPSCs in rdLS neurons after stimulation of CRH+ fibers from ILA expressing Channelrhodopsin; format: cell-based, mice; conditions: 2µM SR 95531 and 1µM CGP 55845 applied together; neurons held at +10 mV
Method: The inventors prepared coronal brain slices from 8- to 12-week-old C57BL6/J mice. […] Brains were cut into 400 µm slices with a vibratome (VT1200S, Leica) in the same ice-cold dissection solution. Slices were then transferred to an incubation chamber containing the same ACSF solution. The chamber was kept at 34°C for 30 min and then at room temperature for at least 1 h before recording. All experiments were performed at room temperature. Slices were mounted in the recording chamber under a microscope. Recordings were acquired using the Multiclamp 700A amplifier (Molecular Device), data acquisition interface ITC-18 (Instrutech) and the Axograph software. The inventors targeted CA2 PNs based somatic location and size in both deep and superficial layer. […] The liquid junction potential was 1.2 mV and was left uncorrected. Inhibitory currents were recorded in voltage-clamp configuration at +10 mV. […] LS neurons from WT mice were also recorded. […] The inventors used the Axograph software for data acquisition, and Excel (Microsoft) and PRISM (Graphpad) for data analysis.

[4] = test system: CRHR1; test: Whole-cell patch-clamp recordings from rdLS CRHR1 neurons in acute LS slices; format: cell-based; conditions: 300 nM stressin-1, bath application; CRHR1-Cre;Ai9 mice; neurons clamped at -60 mV
[5] = test system: CRHR1; test: Spontaneous IPSC recording from LS cells in acute slices before and after agonist application; format: cell-based, mice; conditions: 300 nM
From the text: The inventors prepared coronal brain slices from 8- to 12-week-old C57BL6/J mice. Animals were killed under isoflurane anesthesia by perfusion into the right ventricle of ice-cold solution containing the following (in mM): 125 NaCl, 2.5 KCI, 22.5 glucose, 25 NaHCOs, 1.25 NaH2PO4, 3 Na Pyruvate, 1 Ascorbic acid, 2 CaCl2 and 1 MgCl2). ACSF was saturated with 95% O2 and 5% CO2, pH 7.4. Brains were cut into 400 µm slices with a vibratome (VT1200S, Leica) in the same ice-cold dissection solution. Slices were then transferred to an incubation chamber containing the same ACSF solution. The chamber was kept at 34°C for 30 min and then at room temperature for at least 1 h before recording. All experiments were performed at room temperature. Slices were mounted in the recording chamber under a microscope. Recordings were acquired using the Multiclamp 700A amplifier (Molecular Device), data acquisition interface ITC-18 (Instrutech) and the Axograph software. […] Whole-cell recordings were obtained from LS neurons in voltage-clamp mode at -70 mV patch pipette (3-5 MΩ) containing the following (in mM): 135 Cs-gluconate, 5 KCI, 0.2 EGTA-Na, 10 HEPES, 2 NaCl, 5 ATP, 0.4 GTP, 10 phosphocreatine, and 5 µM biocytin, pH 7.2 (280-290 mOsm). The liquid junction potential was 1.2 mV and was left uncorrected. Inhibitory currents were recorded in voltage-clamp configuration at +10 mV. The inventors recorded rdLS neurons in septal slices from CRH-Cre mice expressing channelrhodopsin and applied 2 µM SR 95531 (Tocris, # 1262) and 1 µM CGP 55845 (Tocris, #1248) to block GABAA and GABAB receptors, respectively while monitoring the light induced IPSCs in rdLS neurons. The inventors also applied a tetanic light stimulation (3 times 100 pulses of 1 ms at 100 Hz) with or without 300 nM antalarmin (Tocris, #2778) present in the bath. LS neurons from WT mice were also recorded. After 10 min of stable baseline recording, stressin-1 (300 nM, Tocris # 1608) was applied following a 1:1000 dilution from stock solution into the ACSF. The inventors used the Axograph software for data acquisition, and Excel (Microsoft) and PRISM (Graphpad) for data analysis.
The inventors prepared acute LS slices from WT mice and recorded spontaneous inhibitory post-synaptic currents (IPSCs) from rdLS cells in whole-cell configuration before applying the CRHR1 agonist stressin-1 (300 nM, Fig. 15A-B). Stressin-1 application for 15 min decreased the frequency and integrated charge of spontaneous IPSCs (Fig. 15B-C and E). […] This effect was not seen when rLS neurons were recorded for 15 min without application of the agonist (Fig. 16 A1-A5).

[6] = application for 15 min, rdLS cells, WT mice

In the case of `CCCCN(CC)c1nc(C)nc2c1c(C)c(C)n2-c1c(C)cc(C)cc1C` [antalarmin], the “decrease in inhibition (sIPSC frequency, amplitude, charge; elicited IPSC) following light stimulation” value [1] is reported as “blocked the disinhibition”, the “preference for the novel mouse” value ([2]; recall trial) is reported as “showed no novelty preference” and the “Total exploration time during learning or recall” value ([2]; vs. DMSO) is reported as “not different between groups”.

For `C[C@H](NC[C@H](O)CP(=O)(O)Cc1ccccc1)c1ccc(Cl)c(Cl)c1` [CGP 55845], the “light-induced IPSCs” value [3] was “abolished”.

With stressin-1 the “current in rdLSCRHR1 neurons” value [4] was “induced an inward current”, the “IPSCs of vLS neurons” value ([5]; 15 min, vLS neurons in posterior LS slices) was “had no effect” and the IPSC amplitude [5, 6] was “trend toward a decrease”. For the same compound, the “frequency of spontaneous IPSCs” value [5, 6] was “decreased” and the “integrated charge of spontaneous IPSCs” value [5, 6] was “decreased”.

With `COc1ccc(-c2ccc(=N)n(CCCC(=O)O)n2)cc1` [SR 95531] the “light-induced IPSCs” value [3] was “abolished”.
